The assay concerns the target T1, human fatty acid synthase FASN (Homo sapiens, UniProt P49327).
T1 construct: human recombinant full-length fatty acid synthase; made in house; host or cells: SF9 cells
Nature of the assay: Biochemical activity testing of human fatty acid synthase FASN (NADPH fluorescence intensity enzyme assay). The settings on record: for IC50: human recombinant full-length FASN, inhibition. The source says: • GST=Glutathione-S-transferase • FRET=Fluorescence resonance energy transfer • HTRF®=(homogenous time resolved fluorescence) • HEPES=4-(2-hydroxyethyl)-1-piperazine ethanesulfonic acid buffer • DTT=Dithiothreitol • BSA=bovine serum albumin • CHAPS=detergent; • CHAPS=3-[(3-cholamidopropyl)dimethylammonio]-1-propanesulfonate Biochemical Activity Testing of Human Fatty Acid Synthase FASN
Fatty acid synthase FASN is a multifunctional enzyme with seven catalytic activities thereby synthesising long chain fatty acids especially palmitoyl-CoA in the presence of co-factor NADPH starting from the substrates acetyl-CoA and malonyl-CoA. The reductive synthesis is realized by the oxidation of NADPH to NADP. Since NADPH has a high fluorescence intensity quantum yield compared to NADP with excitation at 340 nm and emission at 460 nm, the reaction can be monitored via the decrease in fluorescence intensity. The biochemical FASN activity testing was performed as 384 well two-time-point kinetic fluorescence intensity assay format in Greiner low volume medium binding 384-well black microtiter plates in a total assay volume of 8 μl and was used for high throughput screen. In each well 3 μl 40 nM human recombinant full-length fatty acid synthase (produced in-house in SF9 cells) were dispensed in the following assay buffer: 50 mM potassium phosphate buffer pH 7.0, 0.005% (w/v) BSA, 2 mM Glutathione, 0.02% Tween-20. Then 2 μl of 200 μM NADPH in assay buffer were added, followed by the addition of the test compounds in 10 dilution concentrations starting with 30 μM (final concentration) to get a final DMSO content of 1% (v/v). The mixture was incubated for at least 15 min at room temperature. After the pre-incubation the enzymatic reaction was started by the addition of 2 μl substrate solution (80 μM acetyl-CoA, 240 μM malonyl-CoA). A first fluorescence intensity measurement (time point one) was performed with an Envision multimode reader (Perkin Elmer LAS Germany GmbH) at excitation wavelength 340 nm (lamp mode) and emission wavelength 460 nm. The reaction was incubated for 30 minutes at room temperature. After this the fluorescence intensity was measured again in the Envision using the same parameters as described above (second time point measurement). The data were analysed by subtracting the first time point measurement value from the second time point measurement value (after the enzymatic reaction). The differences of the emission signals were determined. These reflect directly the conversion rate of NADPH. The full value used was the inhibitor-free reaction. A pharmacological zero value was used like GSK837149A (Sigma-Aldrich) in a final concentration of 5-10 μM. The inhibitory values (IC50) were determined using either the program Symyx Assay Explorer® or Condosseo® from GeneData.

T1 sequence (P49327 whole entry): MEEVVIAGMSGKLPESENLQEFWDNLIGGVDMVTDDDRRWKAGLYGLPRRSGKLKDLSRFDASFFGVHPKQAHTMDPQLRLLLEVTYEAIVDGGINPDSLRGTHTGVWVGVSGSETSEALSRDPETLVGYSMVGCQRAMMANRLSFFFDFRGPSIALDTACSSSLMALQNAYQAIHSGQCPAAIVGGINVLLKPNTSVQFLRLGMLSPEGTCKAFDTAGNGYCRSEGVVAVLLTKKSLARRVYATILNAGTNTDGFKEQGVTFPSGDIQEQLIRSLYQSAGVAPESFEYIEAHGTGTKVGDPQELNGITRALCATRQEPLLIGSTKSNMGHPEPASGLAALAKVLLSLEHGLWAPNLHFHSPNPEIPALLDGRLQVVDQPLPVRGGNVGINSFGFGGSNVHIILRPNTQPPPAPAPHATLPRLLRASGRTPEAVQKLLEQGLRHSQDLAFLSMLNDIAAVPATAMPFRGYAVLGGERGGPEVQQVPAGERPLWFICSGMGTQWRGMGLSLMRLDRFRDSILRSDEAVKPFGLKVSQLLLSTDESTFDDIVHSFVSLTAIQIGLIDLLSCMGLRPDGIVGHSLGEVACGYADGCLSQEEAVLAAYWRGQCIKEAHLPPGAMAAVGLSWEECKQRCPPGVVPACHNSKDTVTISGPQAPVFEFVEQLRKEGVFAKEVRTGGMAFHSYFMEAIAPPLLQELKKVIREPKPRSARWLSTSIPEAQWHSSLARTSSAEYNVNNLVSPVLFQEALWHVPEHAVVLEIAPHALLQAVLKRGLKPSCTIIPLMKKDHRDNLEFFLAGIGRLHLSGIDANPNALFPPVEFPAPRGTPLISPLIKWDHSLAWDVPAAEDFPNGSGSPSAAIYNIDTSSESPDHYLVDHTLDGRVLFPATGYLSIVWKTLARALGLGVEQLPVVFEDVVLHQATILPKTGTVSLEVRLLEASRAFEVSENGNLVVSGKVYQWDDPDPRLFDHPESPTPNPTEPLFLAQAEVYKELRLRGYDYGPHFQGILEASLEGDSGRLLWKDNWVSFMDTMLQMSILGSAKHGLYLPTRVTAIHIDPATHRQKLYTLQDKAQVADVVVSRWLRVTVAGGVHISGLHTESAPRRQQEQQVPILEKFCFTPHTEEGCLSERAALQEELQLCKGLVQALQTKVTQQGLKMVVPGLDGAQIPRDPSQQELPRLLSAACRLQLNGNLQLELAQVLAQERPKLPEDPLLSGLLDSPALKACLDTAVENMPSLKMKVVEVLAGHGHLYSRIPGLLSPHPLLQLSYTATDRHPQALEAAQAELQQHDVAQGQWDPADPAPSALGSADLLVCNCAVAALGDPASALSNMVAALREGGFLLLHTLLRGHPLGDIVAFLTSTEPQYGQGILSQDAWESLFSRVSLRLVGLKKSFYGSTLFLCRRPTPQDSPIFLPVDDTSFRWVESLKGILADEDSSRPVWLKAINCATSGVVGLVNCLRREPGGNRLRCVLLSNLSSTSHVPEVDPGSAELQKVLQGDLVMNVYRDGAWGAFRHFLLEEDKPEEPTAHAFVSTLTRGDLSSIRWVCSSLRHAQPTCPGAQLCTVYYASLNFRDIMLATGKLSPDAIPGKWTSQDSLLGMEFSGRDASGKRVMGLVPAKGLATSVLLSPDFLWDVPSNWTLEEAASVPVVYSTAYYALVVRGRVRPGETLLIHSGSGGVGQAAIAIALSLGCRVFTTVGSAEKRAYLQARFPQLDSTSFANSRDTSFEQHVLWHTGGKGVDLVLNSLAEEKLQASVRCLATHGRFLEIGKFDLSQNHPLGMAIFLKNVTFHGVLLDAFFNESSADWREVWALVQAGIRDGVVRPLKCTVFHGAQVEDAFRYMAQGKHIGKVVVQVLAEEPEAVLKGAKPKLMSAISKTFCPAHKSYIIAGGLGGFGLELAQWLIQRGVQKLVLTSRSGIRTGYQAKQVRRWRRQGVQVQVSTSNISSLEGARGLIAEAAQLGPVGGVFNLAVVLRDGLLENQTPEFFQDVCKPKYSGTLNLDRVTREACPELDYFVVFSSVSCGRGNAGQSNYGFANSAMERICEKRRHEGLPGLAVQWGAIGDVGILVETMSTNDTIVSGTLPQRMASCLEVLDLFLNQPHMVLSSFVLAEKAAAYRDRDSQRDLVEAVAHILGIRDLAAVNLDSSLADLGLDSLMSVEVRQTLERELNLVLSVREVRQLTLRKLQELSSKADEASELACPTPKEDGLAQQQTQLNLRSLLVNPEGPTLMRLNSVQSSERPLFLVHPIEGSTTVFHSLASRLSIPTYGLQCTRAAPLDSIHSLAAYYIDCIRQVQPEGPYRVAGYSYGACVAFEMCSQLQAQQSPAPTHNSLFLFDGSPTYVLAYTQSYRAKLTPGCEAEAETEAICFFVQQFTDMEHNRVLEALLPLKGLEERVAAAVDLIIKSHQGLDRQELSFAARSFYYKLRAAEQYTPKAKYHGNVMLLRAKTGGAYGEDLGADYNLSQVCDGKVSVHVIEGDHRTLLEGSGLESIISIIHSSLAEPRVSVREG

With `Cc1nnc([C@H]2CC[C@@H](N(C)C(=O)c3ccc(-c4nc5ccccc5[nH]4)cc3)C2)o1` [Compound A17, 4-(1H-benzimidazol-2-yl)-N-methyl-N-[(1 R,3S)-3-(5-methyl-[1,3,4]oxadiazol-2-yl)-cyclopentyl]-benzamide], the concentration for half-maximal inhibition (IC50) (usually the concentration that gives 50% inhibition) was less than 300 nM. As to `Cc1nnc([C@H]2CC[C@@H](N(C)C(=O)c3ccc(-c4ccccc4)cc3)C2)o1` [Compound A24, biphenyl-4-carboxylic acid methyl-[(1R,3S)-3-(5-methyl-[1,3,4]oxadiazol-2-yl)-cyclopentyl]-amide], the half-inhibitory concentration (IC50) is less than 300 nM.

For `CCCc1cn([C@H]2CC[C@@H](N(C)C(=O)c3ccc(-c4ccccc4)cc3)C2)nn1` (racemic) [Compound A30, (rac)-cis-biphenyl-4-carboxylic acid methyl-[3-(4-propyl-[1,2,3]triazol-1-yl)-cyclopentyl]-amide], the IC50 is 3000 to 50000 nM. The same measure, in the same setting: the same measure for `CC(C)c1nnc([C@H]2CC[C@@H](N(C)C(=O)c3ccc(-c4ccc(C#N)cc4)cc3)C2)o1` [Compound A10, 4′-cyano-biphenyl-4-carboxylic acid [(1R,3S)-3-(5-isopropyl-[1,3,4]oxadiazol-2-yl)-cyclopentyl]-methyl-amide]: less than 300 nM.

Turning to `CCCc1nnc([C@H]2CC[C@@H](N(C)C(=O)c3ccc(C#Cc4ccc(F)cc4)cc3)C2)o1` [Compound A3, 4-(4-fluoro-phenylethynyl)-N-methyl-N-[(1 R,3S)-3-(5-propyl-[1,3,4]oxadiazol-2-yl)-cyclopentyl]-benzamide], the IC50 is less than 300 nM. For the molecule `Cc1nnc([C@H]2CC[C@@H](N(C)C(=O)c3ccc(-c4ccc(Cl)cc4)cc3)C2)o1` [Compound A16, 4′-chloro-biphenyl-4-carboxylic acid methyl-[(1R,3S)-3-(5-methyl-[1,3,4]oxadiazol-2-yl)-cyclopentyl]-amide], the IC50 was less than 300 nM.

In the case of `CCc1nnc([C@H]2CC[C@@H](N(C)C(=O)c3ccc(-c4nc5ccccc5[nH]4)cc3)C2)o1` [Compound A7, 4-(1H-benzimidazol-2-yl)-N-[(1 R,3S)-3-(5-ethyl-[1,3,4]oxadiazol-2-yl)-cyclopentyl]-N-methyl-benzamide], the IC50 was less than 300 nM. Consider `Cc1cnc([C@H]2CC[C@@H](N(C)C(=O)c3ccc(-c4nc5ccccc5o4)cc3)C2)o1` [Compound A26, 4-benzoxazol-2-yl-N-methyl-N-[(1 R,3S)-3-(5-methyl-oxazol-2-yl)-cyclopentyl]-benzamide], for which the IC50 is less than 300 nM. Take `CCc1nnc([C@H]2CC[C@@H](N(C)C(=O)c3ccc(-c4ccc(C#N)cc4)cc3)C2)o1` [Compound A6, 4′-cyano-biphenyl-4-carboxylic acid [(1R,3S)-3-(5-ethyl-[1,3,4]oxadiazol-2-yl)-cyclopentyl]-methyl-amide]: the IC50 was less than 300 nM. As to `CC(C)c1nnc([C@H]2CC[C@@H](N(C)C(=O)c3ccc(-c4nc5ccccc5o4)cc3)C2)o1` [Compound A9, 4-benzoxazol-2-yl-N-[(1 R,3S)-3-(5-isopropyl-[1,3,4]oxadiazol-2-yl)-cyclopentyl]-N-methyl-benzamide], the IC50 is less than 300 nM. Still for that read-out and setting: the figure for `CCCc1nnc([C@H]2CC[C@@H](N(C)C(=O)c3ccc(-c4ccc(C#N)cc4)cc3)C2)o1` [Compound A4, 4′-cyano-biphenyl-4-carboxylic acid methyl-[(1 R,3S)-3-(5-propyl-[1,3,4]oxadiazol-2-yl)-cyclopentyl]-amide] is less than 300 nM; for `Cc1nnc([C@H]2CC[C@@H](N(C)C(=O)c3ccc(-c4nc5cc(Cl)ccc5o4)cc3)C2)o1` [Compound A19, 4-(5-chloro-benzoxazol-2-yl)-N-methyl-N-[(1 R,3S)-3-(5-methyl-[1,3,4]oxadiazol-2-yl)-cyclopentyl]-benzamide] it is less than 300 nM. On to `Cc1nnc([C@H]2CC[C@@H](N(C)C(=O)c3ccc(-c4ccc(C#N)cc4)cc3)C2)o1` [Compound A25, 4′-cyano-biphenyl-4-carboxylic acid methyl-[(1R,3S)-3-(5-methyl-[1,3,4]oxadiazol-2-yl)-cyclopentyl]-amide], for which the IC50 was less than 300 nM.

Take `CCCc1nnc([C@H]2CC[C@@H](N(C)C(=O)c3ccc(-c4nc5ccccc5o4)cc3)C2)o1` [Compound A1, 4-benzoxazol-2-yl-N-methyl-N-[(1 R,3S)-3-(5-propyl-[1,3,4]oxadiazol-2-yl)-cyclopentyl]-benzamide]: the IC50 is less than 300 nM. With `Cc1noc([C@H]2CC[C@@H](N(C)C(=O)c3ccc(-c4nc5ccccc5o4)cc3)C2)n1` [Compound A28, 4-benzoxazol-2-yl-N-methyl-N-[(1 R,3S)-3-(3-methyl-[1,2,4]oxadiazol-5-yl)-cyclopentyl]-benzamide], for the setting “@30 μM”, the “IC50 FASN (enzyme assay): % at single concentration” value is −38% @30 μM.

With `COc1cc(C(=O)N(C)[C@@H]2CC[C@H](c3nnc(C)o3)C2)ccc1-c1nc2ccccc2o1` [Compound A18, 4-benzoxazol-2-yl-3-methoxy-N-methyl-N-[(1 R,3S)-3-(5-methyl-[1,3,4]oxadiazol-2-yl)-cyclopentyl]-benzamide], the IC50 is less than 300 nM.

As to `Cc1nnc([C@H]2CC[C@@H](N(C)C(=O)c3ccc(-c4ccncc4)cc3)C2)o1` [Compound A15, N-methyl-N-[(1R,3S)-3-(5-methyl-[1,3,4]oxadiazol-2-yl)-cyclopentyl]-4-pyridin-4-yl-benzamide], the IC50 fell in the range of 300 to 3000 nM. Same read-out and setting: the figure for `Cc1nnc([C@H]2CC[C@@H](N(C)C(=O)c3ccc(-c4nc5ccccc5o4)cn3)C2)o1` [Compound A23, 5-benzoxazol-2-yl-pyridine-2-carboxylic acid methyl-[(1R,3S)-3-(5-methyl-[1,3,4]oxadiazol-2-yl)-cyclopentyl]-amide] is 300 to 3000 nM; for `CCc1nnc([C@H]2CC[C@@H](N(C)C(=O)c3ccc(-c4ccncc4)cc3)C2)o1` [Compound A8, N-[(1R,3S)-3-(5-ethyl-[1,3,4]oxadiazol-2-yl)-cyclopentyl]-N-methyl-4-pyridin-4-yl-benzamide] it is 300 to 3000 nM. As for `Cc1coc([C@H]2CC[C@@H](N(C)C(=O)c3ccc(-c4nc5ccccc5o4)cc3)C2)n1` [Compound A27, 4-benzoxazol-2-yl-N-methyl-N-[(1 R,3S)-3-(4-methyl-oxazol-2-yl)-cyclopentyl]-benzamide], the IC50 was 300 to 3000 nM. Same read-out and setting: the figure for `CC(C)c1nnc([C@H]2CC[C@@H](N(C)C(=O)c3ccc(-c4nc5ccccc5[nH]4)cc3)C2)o1` [Compound A11, 4-(1H-benzimidazol-2-yl)-N-[(1 R,3S)-3-(5-isopropyl-[1,3,4]oxadiazol-2-yl)-cyclopentyl]-N-methyl-benzamide] is less than 300 nM; for `CN(C(=O)c1ccc(-c2ccccc2)cc1)[C@@H]1CC[C@H](n2cc(C3CC3)nn2)C1` (racemic) [Compound A29, (rac)-cis-biphenyl-4-carboxylic acid [-3-(4-cyclopropyl-[1,2,3]triazol-1-yl)-cyclopentyl]-methyl-amide] it is 3000 to 50000 nM. As to `CCc1nnc([C@H]2CC[C@@H](N(C)C(=O)c3ccc(-c4nc5ccccc5o4)cc3)C2)o1` [Compound A5, 4-benzoxazol-2-yl-N-[(1 R,3S)-3-(5-ethyl-[1,3,4]oxadiazol-2-yl)-cyclopentyl]-N-methyl-benzamide], the IC50 was less than 300 nM. For `Cc1nnc([C@H]2CC[C@@H](N(C)C(=O)c3ccc(-c4nc5ccccc5s4)cc3)C2)o1` [Compound A14, 4-benzothiazol-2-yl-N-methyl-N-[(1 R,3S)-3-(5-methyl-[1,3,4]oxadiazol-2-yl)-cyclopentyl]-benzamide], the IC50 was less than 300 nM.

As to `CC(C)c1nnc([C@H]2CC[C@@H](N(C)C(=O)c3ccc(-c4ccncc4)cc3)C2)o1` [Compound A12, N-[(1R,3S)-3-(5-isopropyl-[1,3,4]oxadiazol-2-yl)-cyclopentyl]-N-methyl-4-pyridin-4-yl-benzamide], the IC50 is 300 to 3000 nM.

Take `Cc1nnc([C@H]2CC[C@@H](N(C)C(=O)c3ccc(-c4nc5ccccc5o4)cc3)C2)o1` [Compound A13, 4-benzoxazol-2-yl-N-methyl-N-[(1 R,3S)-3-(5-methyl-[1,3,4]oxadiazol-2-yl)-cyclopentyl]-benzamide]: the IC50 was less than 300 nM. On to `Cc1nnc([C@H]2CC[C@@H](N(C)C(=O)c3ccc(C#Cc4ccncc4)cc3)C2)o1` [Compound A22, N-methyl-N-[(1R,3S)-3-(5-methyl-[1,3,4]oxadiazol-2-yl)-cyclopentyl]-4-pyridin-4-ylethynyl-benzamide], for which the IC50 is 300 to 3000 nM.

For the origin of these results see patent publication US9790216B2, “3-substituted cyclopentylamine derivatives” (Merck Patent GmbH, priority 2013, dated 2017).
